Test results published in ChEMBL document CHEMBL5291721, “A preclinical secondary pharmacology resource illuminates target-adverse drug reaction associations of marketed drugs” (Nat Commun, 2023).

Key:
Adenosine receptor A3 = biological target: T1, Adenosine receptor A3 (Homo sapiens, UniProt P0DMS8)
T1 sequence (P0DMS8 whole entry): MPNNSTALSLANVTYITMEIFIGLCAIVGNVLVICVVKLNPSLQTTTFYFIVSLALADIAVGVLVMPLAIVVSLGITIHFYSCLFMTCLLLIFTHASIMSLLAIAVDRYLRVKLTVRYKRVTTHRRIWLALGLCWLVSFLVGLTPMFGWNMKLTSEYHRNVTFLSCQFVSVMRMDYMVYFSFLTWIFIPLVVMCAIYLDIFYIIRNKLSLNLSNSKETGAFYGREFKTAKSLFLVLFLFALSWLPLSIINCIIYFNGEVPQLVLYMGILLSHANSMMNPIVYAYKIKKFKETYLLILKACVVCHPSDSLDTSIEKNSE

Vasopressin V1a receptor = Vasopressin V1a receptor (Homo sapiens, UniProt P37288)
[1] = biological target: Voltage-dependent L-type calcium channel subunit alpha-1C (Rattus norvegicus, UniProt P22002); type: functional
[2] = biological target: Gamma-aminobutyric acid receptor subunit alpha-1 (Rattus norvegicus, UniProt P62813); type: functional
[3] = biological target: Kappa-type opioid receptor (Homo sapiens, UniProt P41145)
[4] = biological target: T2, Prostaglandin G/H synthase 1 (Rattus norvegicus, UniProt Q63921); type: functional
T2 sequence (Q63921 whole entry): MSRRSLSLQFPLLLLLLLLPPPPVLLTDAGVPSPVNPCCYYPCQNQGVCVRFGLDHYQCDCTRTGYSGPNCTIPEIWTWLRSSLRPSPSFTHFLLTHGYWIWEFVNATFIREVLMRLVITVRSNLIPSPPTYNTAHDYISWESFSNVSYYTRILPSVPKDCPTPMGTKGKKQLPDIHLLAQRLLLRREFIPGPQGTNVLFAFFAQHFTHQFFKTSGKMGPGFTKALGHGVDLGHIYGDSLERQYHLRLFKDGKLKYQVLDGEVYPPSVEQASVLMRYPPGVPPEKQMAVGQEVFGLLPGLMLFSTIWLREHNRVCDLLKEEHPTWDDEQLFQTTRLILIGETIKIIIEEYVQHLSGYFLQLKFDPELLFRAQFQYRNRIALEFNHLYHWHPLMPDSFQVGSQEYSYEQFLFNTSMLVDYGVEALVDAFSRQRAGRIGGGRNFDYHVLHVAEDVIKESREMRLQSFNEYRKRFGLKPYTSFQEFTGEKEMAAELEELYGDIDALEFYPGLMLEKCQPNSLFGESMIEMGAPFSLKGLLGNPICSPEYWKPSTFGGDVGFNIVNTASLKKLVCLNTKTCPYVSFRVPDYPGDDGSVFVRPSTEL

[5] = biological target: Sodium-dependent dopamine transporter (Homo sapiens, UniProt Q01959)
[6] = biological target: Sodium-dependent noradrenaline transporter (Homo sapiens, UniProt P23975)
Mu-type opioid receptor = Mu-type opioid receptor (Homo sapiens, UniProt P35372)
[7] = biological target: T3, Amine oxidase [flavin-containing] A (Homo sapiens, UniProt P21397); type: functional
T3 sequence (P21397 whole entry): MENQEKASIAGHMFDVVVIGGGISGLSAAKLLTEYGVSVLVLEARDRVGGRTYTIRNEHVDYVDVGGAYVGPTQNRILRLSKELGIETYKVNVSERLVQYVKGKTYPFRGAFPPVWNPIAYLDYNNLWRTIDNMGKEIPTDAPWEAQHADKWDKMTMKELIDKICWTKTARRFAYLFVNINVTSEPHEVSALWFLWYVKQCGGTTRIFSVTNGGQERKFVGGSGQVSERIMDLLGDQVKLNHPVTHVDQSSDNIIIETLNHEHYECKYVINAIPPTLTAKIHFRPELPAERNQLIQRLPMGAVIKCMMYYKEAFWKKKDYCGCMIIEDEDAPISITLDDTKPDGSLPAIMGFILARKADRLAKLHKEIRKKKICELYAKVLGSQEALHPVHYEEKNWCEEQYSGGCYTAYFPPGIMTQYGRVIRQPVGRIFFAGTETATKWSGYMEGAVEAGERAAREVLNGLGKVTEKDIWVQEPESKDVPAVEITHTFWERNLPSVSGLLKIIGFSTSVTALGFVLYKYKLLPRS

[8] = biological target: cGMP-inhibited 3',5'-cyclic phosphodiesterase 3A (Homo sapiens, UniProt Q14432); type: functional
[9] = biological target: T4, Gastrin/cholecystokinin type B receptor (Homo sapiens, UniProt P32239)
T4 sequence (P32239 whole entry): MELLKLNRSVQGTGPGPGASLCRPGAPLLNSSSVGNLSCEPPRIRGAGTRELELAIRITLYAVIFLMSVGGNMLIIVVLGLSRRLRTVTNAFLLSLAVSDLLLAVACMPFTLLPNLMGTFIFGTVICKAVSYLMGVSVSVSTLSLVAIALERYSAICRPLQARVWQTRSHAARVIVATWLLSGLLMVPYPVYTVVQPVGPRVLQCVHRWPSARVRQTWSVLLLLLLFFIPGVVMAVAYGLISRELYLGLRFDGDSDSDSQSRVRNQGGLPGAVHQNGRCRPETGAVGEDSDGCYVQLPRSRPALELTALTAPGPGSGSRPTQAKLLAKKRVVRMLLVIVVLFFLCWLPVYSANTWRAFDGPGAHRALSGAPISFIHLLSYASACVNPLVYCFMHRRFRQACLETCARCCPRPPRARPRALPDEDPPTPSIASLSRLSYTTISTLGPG

[10] = biological target: T5, Alpha-1A adrenergic receptor (Homo sapiens, UniProt P35348); type: functional, cell-based
T5 sequence (P35348 whole entry): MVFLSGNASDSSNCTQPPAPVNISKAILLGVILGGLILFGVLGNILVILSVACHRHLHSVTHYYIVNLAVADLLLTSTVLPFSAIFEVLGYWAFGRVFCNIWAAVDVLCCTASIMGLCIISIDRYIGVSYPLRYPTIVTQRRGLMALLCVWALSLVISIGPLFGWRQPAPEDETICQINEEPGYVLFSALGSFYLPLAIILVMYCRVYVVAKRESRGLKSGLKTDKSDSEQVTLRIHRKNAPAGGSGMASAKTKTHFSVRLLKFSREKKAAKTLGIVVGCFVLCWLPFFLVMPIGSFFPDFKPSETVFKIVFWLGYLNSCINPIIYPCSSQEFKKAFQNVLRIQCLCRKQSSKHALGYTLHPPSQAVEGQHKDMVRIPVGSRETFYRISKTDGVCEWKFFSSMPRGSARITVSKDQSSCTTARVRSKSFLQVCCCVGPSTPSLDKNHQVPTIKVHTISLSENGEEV
Further: assay procedure not described here.

Voltage-dependent L-type calcium channel subunit alpha-1C, sequence (P22002 whole entry): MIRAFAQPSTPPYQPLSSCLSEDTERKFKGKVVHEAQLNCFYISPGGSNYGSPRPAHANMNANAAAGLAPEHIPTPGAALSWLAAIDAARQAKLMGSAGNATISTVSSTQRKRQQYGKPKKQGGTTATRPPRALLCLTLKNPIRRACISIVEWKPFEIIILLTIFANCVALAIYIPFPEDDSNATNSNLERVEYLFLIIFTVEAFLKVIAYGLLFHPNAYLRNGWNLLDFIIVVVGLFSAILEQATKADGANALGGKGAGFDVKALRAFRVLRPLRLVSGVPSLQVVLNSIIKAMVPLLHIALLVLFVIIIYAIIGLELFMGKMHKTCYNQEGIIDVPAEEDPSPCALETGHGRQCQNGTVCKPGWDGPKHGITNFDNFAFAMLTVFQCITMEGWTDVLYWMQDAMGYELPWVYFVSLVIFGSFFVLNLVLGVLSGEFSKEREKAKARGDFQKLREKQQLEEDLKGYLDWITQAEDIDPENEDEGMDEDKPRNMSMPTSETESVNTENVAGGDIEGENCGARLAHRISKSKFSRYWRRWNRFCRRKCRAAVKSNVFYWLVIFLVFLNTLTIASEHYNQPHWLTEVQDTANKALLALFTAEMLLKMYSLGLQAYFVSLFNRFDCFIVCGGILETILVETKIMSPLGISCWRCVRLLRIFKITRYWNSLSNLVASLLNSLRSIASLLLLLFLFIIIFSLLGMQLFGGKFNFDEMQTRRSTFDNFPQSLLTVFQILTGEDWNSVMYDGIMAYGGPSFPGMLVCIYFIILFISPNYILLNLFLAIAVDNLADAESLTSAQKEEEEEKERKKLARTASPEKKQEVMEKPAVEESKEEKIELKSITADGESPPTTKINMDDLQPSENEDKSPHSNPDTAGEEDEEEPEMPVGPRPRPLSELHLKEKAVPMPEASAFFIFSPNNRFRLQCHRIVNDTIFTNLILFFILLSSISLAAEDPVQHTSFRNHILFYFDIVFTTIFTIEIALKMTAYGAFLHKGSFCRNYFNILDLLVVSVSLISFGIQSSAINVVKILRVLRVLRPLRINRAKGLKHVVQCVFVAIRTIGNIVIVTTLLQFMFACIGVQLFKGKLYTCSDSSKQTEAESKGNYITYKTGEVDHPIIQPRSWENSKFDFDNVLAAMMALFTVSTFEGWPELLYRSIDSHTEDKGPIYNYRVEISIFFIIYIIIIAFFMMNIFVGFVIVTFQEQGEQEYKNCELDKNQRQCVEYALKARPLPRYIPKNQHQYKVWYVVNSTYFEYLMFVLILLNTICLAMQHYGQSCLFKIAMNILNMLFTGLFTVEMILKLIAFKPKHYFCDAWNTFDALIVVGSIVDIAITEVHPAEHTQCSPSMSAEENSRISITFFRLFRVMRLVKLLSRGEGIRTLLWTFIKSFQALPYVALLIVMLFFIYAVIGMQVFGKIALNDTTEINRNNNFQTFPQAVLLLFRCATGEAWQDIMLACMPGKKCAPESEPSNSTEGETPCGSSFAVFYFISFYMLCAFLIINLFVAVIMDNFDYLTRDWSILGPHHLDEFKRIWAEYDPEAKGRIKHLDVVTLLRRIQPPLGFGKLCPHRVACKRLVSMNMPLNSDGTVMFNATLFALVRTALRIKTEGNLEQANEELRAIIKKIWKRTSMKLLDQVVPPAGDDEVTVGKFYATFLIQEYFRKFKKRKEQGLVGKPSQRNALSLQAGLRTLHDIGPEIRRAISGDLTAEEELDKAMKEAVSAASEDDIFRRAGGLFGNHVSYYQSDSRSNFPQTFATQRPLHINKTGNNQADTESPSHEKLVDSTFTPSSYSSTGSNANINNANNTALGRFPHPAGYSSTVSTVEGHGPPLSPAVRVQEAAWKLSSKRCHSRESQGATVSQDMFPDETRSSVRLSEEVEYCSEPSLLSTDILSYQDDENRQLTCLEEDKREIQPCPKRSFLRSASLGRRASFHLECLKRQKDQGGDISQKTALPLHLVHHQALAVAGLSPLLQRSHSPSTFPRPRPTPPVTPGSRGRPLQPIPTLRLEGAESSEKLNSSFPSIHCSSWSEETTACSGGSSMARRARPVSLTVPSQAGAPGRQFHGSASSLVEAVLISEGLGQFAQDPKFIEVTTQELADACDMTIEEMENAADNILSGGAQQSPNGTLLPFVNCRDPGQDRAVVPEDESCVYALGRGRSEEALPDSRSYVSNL
Vasopressin V1a receptor, sequence (P37288 whole entry): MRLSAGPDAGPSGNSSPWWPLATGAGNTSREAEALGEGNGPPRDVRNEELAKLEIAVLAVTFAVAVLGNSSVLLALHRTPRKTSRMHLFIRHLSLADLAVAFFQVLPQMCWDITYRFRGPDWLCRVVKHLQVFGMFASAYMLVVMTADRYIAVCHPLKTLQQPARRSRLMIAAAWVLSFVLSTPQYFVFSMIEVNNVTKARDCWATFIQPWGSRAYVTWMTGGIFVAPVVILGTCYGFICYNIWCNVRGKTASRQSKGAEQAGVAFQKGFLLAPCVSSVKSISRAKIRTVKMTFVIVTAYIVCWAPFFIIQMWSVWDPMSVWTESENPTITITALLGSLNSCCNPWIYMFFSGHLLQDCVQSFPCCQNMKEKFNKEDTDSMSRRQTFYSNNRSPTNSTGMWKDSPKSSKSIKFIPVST
cGMP-inhibited 3',5'-cyclic phosphodiesterase 3A, sequence (Q14432 whole entry): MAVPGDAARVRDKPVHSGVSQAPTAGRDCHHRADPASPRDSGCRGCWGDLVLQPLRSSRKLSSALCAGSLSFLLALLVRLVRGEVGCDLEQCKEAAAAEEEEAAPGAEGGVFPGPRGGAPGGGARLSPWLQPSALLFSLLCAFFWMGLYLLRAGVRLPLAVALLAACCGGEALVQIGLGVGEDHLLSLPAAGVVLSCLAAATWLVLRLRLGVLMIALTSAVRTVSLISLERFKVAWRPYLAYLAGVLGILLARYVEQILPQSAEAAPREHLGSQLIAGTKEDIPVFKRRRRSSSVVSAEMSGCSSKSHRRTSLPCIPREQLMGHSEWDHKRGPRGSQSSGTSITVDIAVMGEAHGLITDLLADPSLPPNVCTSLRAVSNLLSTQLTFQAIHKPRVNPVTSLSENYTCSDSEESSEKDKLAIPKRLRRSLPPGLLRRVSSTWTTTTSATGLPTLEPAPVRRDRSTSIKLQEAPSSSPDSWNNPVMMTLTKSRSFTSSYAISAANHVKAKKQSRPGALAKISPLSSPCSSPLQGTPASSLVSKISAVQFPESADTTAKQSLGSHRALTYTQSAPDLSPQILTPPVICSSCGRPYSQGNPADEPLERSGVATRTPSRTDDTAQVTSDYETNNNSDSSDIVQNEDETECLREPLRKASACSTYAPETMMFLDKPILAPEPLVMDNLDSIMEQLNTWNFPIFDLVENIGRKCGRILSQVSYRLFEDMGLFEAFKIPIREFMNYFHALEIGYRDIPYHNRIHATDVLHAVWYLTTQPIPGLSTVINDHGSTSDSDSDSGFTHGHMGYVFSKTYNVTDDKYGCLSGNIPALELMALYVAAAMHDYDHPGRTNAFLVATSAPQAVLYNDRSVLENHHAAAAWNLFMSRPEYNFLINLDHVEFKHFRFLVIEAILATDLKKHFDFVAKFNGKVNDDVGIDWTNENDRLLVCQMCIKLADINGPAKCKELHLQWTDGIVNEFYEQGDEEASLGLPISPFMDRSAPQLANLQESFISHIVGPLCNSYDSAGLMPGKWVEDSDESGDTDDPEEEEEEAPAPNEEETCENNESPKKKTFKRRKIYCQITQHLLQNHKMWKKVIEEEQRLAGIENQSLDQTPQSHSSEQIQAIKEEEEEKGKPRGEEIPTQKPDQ
Sodium-dependent dopamine transporter, sequence (Q01959 whole entry): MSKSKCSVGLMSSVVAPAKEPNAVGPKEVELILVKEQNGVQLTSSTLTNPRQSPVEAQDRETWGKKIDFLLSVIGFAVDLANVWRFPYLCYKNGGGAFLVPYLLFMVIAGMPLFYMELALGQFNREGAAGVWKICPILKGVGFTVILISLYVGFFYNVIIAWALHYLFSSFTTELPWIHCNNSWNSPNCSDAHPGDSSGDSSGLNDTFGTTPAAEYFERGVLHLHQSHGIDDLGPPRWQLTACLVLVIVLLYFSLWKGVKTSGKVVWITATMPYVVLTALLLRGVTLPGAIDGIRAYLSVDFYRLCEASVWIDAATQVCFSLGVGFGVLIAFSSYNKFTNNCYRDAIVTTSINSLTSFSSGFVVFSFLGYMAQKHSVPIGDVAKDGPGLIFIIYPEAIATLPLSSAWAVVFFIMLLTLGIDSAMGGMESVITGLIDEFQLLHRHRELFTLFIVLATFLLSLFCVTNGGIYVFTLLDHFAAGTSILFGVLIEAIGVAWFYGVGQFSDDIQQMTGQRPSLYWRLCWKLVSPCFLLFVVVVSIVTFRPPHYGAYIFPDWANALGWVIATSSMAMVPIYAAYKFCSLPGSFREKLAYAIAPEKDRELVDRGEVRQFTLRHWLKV
Kappa-type opioid receptor, sequence (P41145 whole entry): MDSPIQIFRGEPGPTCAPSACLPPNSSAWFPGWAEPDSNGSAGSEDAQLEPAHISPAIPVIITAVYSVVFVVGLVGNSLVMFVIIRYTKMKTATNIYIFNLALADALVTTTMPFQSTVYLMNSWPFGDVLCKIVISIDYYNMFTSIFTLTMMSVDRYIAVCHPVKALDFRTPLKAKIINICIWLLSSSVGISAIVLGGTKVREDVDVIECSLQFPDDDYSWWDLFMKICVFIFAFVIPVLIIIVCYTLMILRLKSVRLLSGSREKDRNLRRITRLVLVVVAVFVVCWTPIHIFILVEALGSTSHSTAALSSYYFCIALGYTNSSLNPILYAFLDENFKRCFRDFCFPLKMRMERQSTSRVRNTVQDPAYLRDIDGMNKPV

SMILES	AC50 (Adenosine receptor A3) [µM]	AC50 (Vasopressin V1a receptor) [µM]	AC50 [1] [µM]	AC50 [2] [µM]	AC50 [3] [µM]	AC50 [4] [µM]	AC50 [5] [µM]	AC50 [6] [µM]	AC50 (Mu-type opioid receptor) [µM]	AC50 [7] [µM]	AC50 [8] [µM]	AC50 [9] [µM]	AC50 [10] [µM]
O=C1CN(/N=C/c2ccc(-c3ccc([N+](=O)[O-])cc3)o2)C(O)=N1 [DANTROLENE]	> 30	> 10	> 10	> 10	> 10	> 10	> 10	> 10	> 30	> 10	> 30	–	–
C[C@@H](Oc1cc(-c2cnn(C3CCNCC3)c2)cnc1N)c1c(Cl)ccc(F)c1Cl [CRIZOTINIB]	8.93	> 30	1.56	> 30	–	8.2	7.8	7.96	> 30	30	> 30	> 30	–
C=C[C@H]1C[N@@]2CC[C@H]1C[C@@H]2[C@@H](O)c1ccnc2ccc(OC)cc12 [QUINIDINE]	> 30	> 30	–	–	4	> 30	9.56	> 30	6.2	> 10	> 30	> 30	–
CN(C)[C@@H]1C(O)=C(C(N)=O)C(=O)[C@@]2(O)C(O)=C3C(=O)c4c(O)ccc(Cl)c4[C@@](C)(O)[C@H]3C[C@@H]12 [CHLORTETRACYCLINE]	–	–	–	–	–	–	–	–	–	–	–	–	> 30
C=CCN1CC[C@]23CCCC[C@H]2[C@H]1Cc1ccc(O)cc13 [LEVALLORPHAN]	–	–	–	–	–	–	–	–	–	–	–	–	> 30
CC(N)C12CC3CC(CC(C3)C1)C2 (configuration not stated) [RIMANTADINE]	> 10	–	> 10	> 10	> 10	> 10	> 10	> 10	> 30	> 10	> 30	–	–
C[C@@H]1C[C@H]2[C@@H]3CCC4=CC(=O)C=C[C@]4(C)[C@@]3(Cl)[C@@H](O)C[C@]2(C)[C@@]1(OC(=O)c1ccco1)C(=O)CCl [MOMETASONE FUROATE]	–	–	–	–	–	–	–	–	–	–	–	–	> 10
CC1=C(/C=C/C(C)=C/C=C/C(C)=C/C(=O)O)C(C)(C)CCC1 [TRETINOIN]	–	–	–	–	–	–	–	–	–	–	–	–	20.3
CC[C@H](C)C[C@H](C)CCCCCCCCC(=O)N[C@H]1C[C@@H](O)[C@@H](NCCN)NC(=O)[C@@H]2[C@@H](O)CCN2C(=O)[C@H]([C@H](O)CCN)NC(=O)[C@H]([C@H](O)[C@@H](O)c2ccc(O)cc2)NC(=O)[C@@H]2C[C@@H](O)CN2C(=O)[C@H]([C@@H](C)O)NC1=O [CASPOFUNGIN]	–	–	–	–	–	–	–	–	–	–	–	–	13
